Source: patent US20030236212A1, “Functionalized long chain derivatives as acyl coenzyme-A mimics, compositions thereof, and methods of cholesterol management and related uses” (priority 2002, published 2003)

What was measured:
[1] = system: obese female Zucker rats; experiment: Oral daily treatment of obese female Zucker rats for 14 days (body weight, serum lipids, glucose, insulin); type: in vivo, rat; parameters: HDL-C / Glucose / Insulin / NEFA / BHA / TG / TC / Non HDL-C: unit not given here
Experimental: The dosing vehicle was administered to control animals in parallel experiments.
Body weight was determined daily prior to dosing. Animals were allowed free access to rodent chow and water throughout the study. Blood glucose was determined after a 6-hour fast in the afternoon without anesthesia from a tail vein. Serum was also prepared from a blood sample subsequently obtained from the orbital venous plexus (with O2/CO2 anesthesia) prior to and after one week treatment and used lipid and insulin determinations. At two weeks, blood glucose was again determined after a 6-hour fast without anesthesia from a tail vein. Soon thereafter, animals were sacrificed by CO2 inhalation in the afternoon and cardiac blood serum was collected and assessed for various lipids and insulin.

[2] = system: primary rat hepatocytes; experiment: Synthesis of total lipids (14C-acetate labeling) in primary rat hepatocytes; type: cell-based; conditions: rat hepatocyte cells, 14C-acetate 4 hr, vs vehicle control
Experimental: A male Sprague-Dawley rate was anesthetized by administration of sodium pentobarbitol by intraperitoneal at 80 mg/kg. In situ perfusion of the liver was performed as follows. The abdomen of the animal was opened, the portal vein canulated, and the liver perfused with WOSH solution (149 mM NaCl, 9.2 mM Na HEPES, 1.7 mM Fructose, 0.5 mM EGTA, 0.029 mM Phenol red, 10 U/ml heparin, pH 7.5) at a flow rate of 30 ml/min for 6 minutes. To digest the liver, DSC solution (6.7 mM KCl, 143 mM NaCl, 9.2 mM Na HEPES, 5 mM CaCl2-2H2O, 1.7 mM Fructose, 0.029 mM Phenol red, 0.2% BSA, 100 U/ml collagenase Type 1,160 BAEE/ml trypsin inhibitor, pH 7.5) was perfused through the liver at a flow rate of 30 ml/min for 6 minutes at a temperature of 37° C. After digestion, cells were dispersed in a solution of DMEM-(DMEM containing 2 mM GlutMax-1, 0.2% BSA, 5% FBS, 12 nM insulin, 1.2 μM hydrocortisone) to stop the digestion process. The crude cell suspension was filtered through three layers of stainless steel mesh with pore sizes of 250, 106, and 75 μm respectively. Filtered cells were centrifuged at 50×g for two minutes and the supernatant discarded. The resulting cell pellet was resuspended in DMEM and centrifuged again. This final cell pellet was resuspended in DMEM+HS solution (DMEM containing 2 mM GlutMax-1, 20 mM delta-aminolevulinic acid, 17.4 mM MEM nonessential amino acids, 20% FBS, 12 nM insulin, 1.2 μM hydrocortisone) and plated to form monolayer cultures at a density of 100×10^3 cells/cm^2 on collagen coated culture dishes.
To test the effect of an illustrative compound of the invention on synthesis rates of total lipids, the monolayer cultures were exposed to 1, 3, 10, 30, 100, or 300 μM of Compound A or 10 μM of Compound 1 in DMEM+containing 1 μCi/ml 14C-acetate, D-glucose, hepes, glutamine, leucine, alanine, lactate, pyruvate, non-essential amino acids, BSA, and gentamicine. Control cells were exposed to the same media lacking lovastatin or the test compounds. All cells were exposed to 0.1% DMSO. Metabolic labeling with ^14C-acetate continued for 4 hr at 37° C. After labeling, cells were washed twice with 1 mL of PBS followed by addition of scintallant (Microscent E) and counted on Topcount®.

[3] = obese female Zucker rats, oral gavage daily 14 days, 100 mg/kg
[4] = obese female Zucker rats, oral, 14 days, 100 mg/kg/day (Table 1)

SMILES: CC(C)(CCCCOCCCCC(C)(C)COP(=O)(O)O)COP(=O)(O)O.N.N.N.N [Compound A]
- serum insulin relative to pretreatment ([1]; fasted obese female Zucker rats, two weeks of treatment, 100 mg/kg): rose slightly
- liver to body weight [1, 3]: increased
- serum non-esterified fatty acids [1, 3]: reduced
- serum total cholesterol [1, 3]: elevated
- serum triglycerides [1, 3]: reduced
- weight gain, percent of initial weight after two weeks [1, 3]: 1%
- β-hydroxy butyrate levels [1, 3]: elevated
- BHA [1, 4]: 1 ± 0.5
- Glucose [1, 4]: 5.6 ± 4.2
- HDL-C [1, 4]: 186.7 ± 51.5
- Insulin [1, 4]: 10.6 ± 26.3
- NEFA [1, 4]: 0.059 ± 0.003
- Non HDL-C [1, 4]: −30.6 ± 15.4
- TC [1, 4]: −85.7 ± 1.2
- TG [1, 4]: 833.8 ± 209.9
- ratio of non-HDL cholesterol to HDL cholesterol content ([1]; obese female Zucker rats, relative to control and reference compound-treated animals, 100 mg/kg): improved
- HDL-cholesterol elevation ([1]; obese female Zucker rats, two-week treatment, 100 mg/kg): 9 fold
- body weight increases ([1]; obese female Zucker rats, versus reference compound-treated animals, 100 mg/kg): did not cause the body weight increases
- reduction of rates of total lipid synthesis ([2]; 3 μM): at least 97%
- reduction of rates of total lipid synthesis ([2]; 10 μM): at least 97%
- melting point: 185 to 186 °C
